Measured values taken from PMC10574767, “Extractives from Artemisia afra with Anti-Bacterial and Anti-Fungal Properties” (Plants, 2023).
≈ marks a conversion by molar mass, not a printed value.

What was measured:
[1] = tested on: Candida albicans ATCC 10231; test: Serial dilution microplate MIC (fungi); format: cell-based; conditions: Table 2
Method: (§1) The MIC value of the plant extracts and isolated compounds against one fungal and five bacterial strains (Salmonella Typhimurium ATCC 39183, Escherichia coli ATCC 25922, Pseudomonas aeruginosa ATCC 27853, Staphylococcus aureus ATCC 29213, Enterococcus faecalis ATCC 29212, and fungi culture, Candida albicans ATCC 10231) was assessed in triplicate using the serial dilution microplate method; acetone and DMSO were used as solvents. Bacterial cultures were grown in Mueller Hinton broth (Sigma Aldrich, St. Louis, MO, USA) overnight and adjusted to McFarland standard 1 (1 × 10^8 CFU/mL). Then, 100 µL of samples were transferred into the first well of a sterile 96-well microtiter plate, which contained 100 µL of water and a 1:1 serial dilution with sterilized distilled water was carried out. In each well, 100 µL of appropriately adjusted fungal or bacterial cultures were added, and the bacteria were subjected to final concentrations of 250–3.9 μg/mL for pure compounds and 2.5–0.02 mg/mL for crude extracts. Amphotericin-B and Gentamicin (Virbac, Carros, France) served as positive controls for fungi and bacteria, respectively. For sterility, water served as control, while acetone served as a negative control. The microplates were then incubated for 24 h at 37 °C. Following incubation, 40 µL of 0.2 mg/mL p-iodonitrotetrazolium violet (INT, Sigma Aldrich) dissolved in water (hot) was added to the wells before being incubated at 37 °C for another 2 h. In the case of fungi, the INT was added before incubation. The MIC was measured visually as the lowest concentration of the compounds/extracts that inhibited proliferation.

[2] = tested on: T. rubrum; parameters: method as in PMID 19844829, PMID 35453556; conditions: cited from earlier work
[3] = tested on: MCF-7; parameters: method as in PMID 35453556, PMID 21294076; conditions: cited from earlier work
[4] = tested on: T. mentagrophytes; parameters: method as in PMID 19844829, PMID 35453556; conditions: cited from earlier work
[5] = tested on: one fungal and five bacterial strains; test: Serial dilution microplate MIC, whole panel; format: cell-based; conditions: isolated compounds, all tested strains; highest concentration 250 µg/mL; read-out: MIC against all tested microorganisms
Method: as §1

[6] = tested on: Candida albicans; parameters: method as in PMID 19844829, PMID 35453556; conditions: cited from earlier work
[7] = tested on: MRC-5; parameters: method as in PMID 35453556, PMID 21294076; conditions: cited from earlier work
[8] = tested on: Klebsiella pneumoniae; parameters: method as in ref 36 = [36]; 36. Koay Y.C. Wong K.C. Hasnah O. Ibrahim E.M.S. Mohammad Z.A. Chemical constituents and biological activities of Strobilanthes crispus L. Rec. Nat. Prod. 2013 7 59 64; conditions: cited from earlier work
[9] = tested on: HeLa; parameters: method as in PMID 35453556, PMID 21294076; conditions: cited from earlier work
[10] = tested on: Aspergillus niger, Aspergillus flavus, Rhizoctonia phaseoli, and Penicillium chrysogenum; parameters: method as in ref 38 = [38]; 38. ur Rahman U. Durrani S. Ubaidullah S.A. ur Rahman S. Anti-pyretic activity of taraxerol acetate KJMS 2016 9 165; conditions: 1 mg/disc; cited from earlier work
[11] = tested on: Bacillus subtilis; parameters: method as in ref 36 = [36]; 36. Koay Y.C. Wong K.C. Hasnah O. Ibrahim E.M.S. Mohammad Z.A. Chemical constituents and biological activities of Strobilanthes crispus L. Rec. Nat. Prod. 2013 7 59 64; conditions: cited from earlier work
[12] = tested on: Salmonella Typhimurium; parameters: method as in ref 36 = [36]; 36. Koay Y.C. Wong K.C. Hasnah O. Ibrahim E.M.S. Mohammad Z.A. Chemical constituents and biological activities of Strobilanthes crispus L. Rec. Nat. Prod. 2013 7 59 64; conditions: cited from earlier work
[13] = tested on: Escherichia coli; parameters: method as in ref 36 = [36]; 36. Koay Y.C. Wong K.C. Hasnah O. Ibrahim E.M.S. Mohammad Z.A. Chemical constituents and biological activities of Strobilanthes crispus L. Rec. Nat. Prod. 2013 7 59 64; conditions: cited from earlier work
[14] = tested on: Staphylococcus aureus; parameters: method as in ref 36 = [36]; 36. Koay Y.C. Wong K.C. Hasnah O. Ibrahim E.M.S. Mohammad Z.A. Chemical constituents and biological activities of Strobilanthes crispus L. Rec. Nat. Prod. 2013 7 59 64; conditions: cited from earlier work
[15] = tested on: Aspergillus niger; parameters: method as in PMID 19844829, PMID 35453556; conditions: cited from earlier work
[16] = tested on: Pseudomonas aeruginosa ATCC 27853; test: Serial dilution microplate MIC; format: cell-based; conditions: Table 2
Method: as §1

[17] = tested on: Enterococcus faecalis ATCC 29212; test: Serial dilution microplate MIC; format: cell-based; conditions: Table 2
Method: as §1

[18] = tested on: Salmonella Typhimurium ATCC 39183; test: Serial dilution microplate MIC; format: cell-based; conditions: Table 2
Method: as §1

[19] = tested on: Staphylococcus aureus ATCC 29213; test: Serial dilution microplate MIC; format: cell-based; conditions: Table 2
Method: as §1

[20] = tested on: Escherichia coli ATCC 25922; test: Serial dilution microplate MIC; format: cell-based; conditions: Table 2
Method: as §1

[21] = tested on: A431 squamous carcinoma cell line; parameters: method as in PMID 35453556, PMID 21294076; conditions: cited from earlier work

CC1(C)CC[C@]2(C)CC=C3[C@]4(C)CC[C@H]5C(C)(C)[C@@H](O)CC[C@]5(C)[C@H]4CC[C@@]3(C)[C@@H]2C1 [Compound 3β-Taraxerol, 3β-taraxerol]
MIC ([1]; Candida albicans, ATCC10231, isolated compounds, read-out: Minimum inhibitory concentration (MIC) C. albicans): 250 µg/mL (≈ 586 µM) | Selectivity index C. albicans ([1]; in brackets, Vero LC50 vs MIC): > 0.8 | MIC T. rubrum [2]: 12.5 µg/mL (≈ 29.3 µM) | Cytotoxicity MCF-7 [3]: inactive | MIC T. mentagrophytes [4]: 12.5 µg/mL (≈ 29.3 µM) | MIC [5]: > 250 µg/mL | MIC Candida albicans [6]: 25 µg/mL (≈ 58.6 µM) | Cytotoxicity MRC-5 [7]: inactive | MIC Klebsiella pneumoniae [8]: 62.5 µg/mL (≈ 146 µM) | Cytotoxicity HeLa [9]: inactive | Anti-fungal activity against four fungi [10]: weak anti-fungal activities | MIC Bacillus subtilis [11]: 15.6 µg/mL (≈ 36.6 µM) | MIC Salmonella Typhimurium [12]: 62.5 µg/mL (≈ 146 µM) | MIC Escherichia coli [13]: 62.5 µg/mL (≈ 146 µM) | MIC Staphylococcus aureus [14]: 15.6 µg/mL (≈ 36.6 µM) | MIC Aspergillus niger [15]: 100 µg/mL (≈ 234 µM) | MIC ([16]; Pseudomonas aeruginosa, ATCC27853, isolated compounds, read-out: Minimum inhibitory concentration (MIC) P. aeruginosa): > 250 µg/mL | Selectivity index P. aeruginosa ([16]; in brackets, Vero LC50 vs MIC): < 0.8 | MIC ([17]; Enterococcus faecalis, ATCC29212, isolated compounds, read-out: Minimum inhibitory concentration (MIC) E. faecalis): > 250 µg/mL | Selectivity index E. faecalis ([17]; in brackets, Vero LC50 vs MIC): < 0.8 | MIC ([18]; Salmonella enterica, isolated compounds, read-out: Minimum inhibitory concentration (MIC) S. Typhimurium): 250 µg/mL (≈ 586 µM) | Selectivity index S. Typhimurium ([18]; in brackets, Vero LC50 vs MIC): > 0.8 | MIC ([19]; Staphylococcus aureus, ATCC29213, isolated compounds, read-out: Minimum inhibitory concentration (MIC) S. aureus): 250 µg/mL (≈ 586 µM) | Selectivity index S. aureus ([19]; in brackets, Vero LC50 vs MIC): > 0.8 | MIC ([20]; Escherichia coli, ATCC25922, isolated compounds, read-out: Minimum inhibitory concentration (MIC) E. coli): 250 µg/mL (≈ 586 µM) | Selectivity index E. coli ([20]; in brackets, Vero LC50 vs MIC): > 0.8 | Cytotoxicity A431 [21]: 2.65 µg/mL
